Reference: patent US4199504A (priority 1978, dated 1980)

Assays:
[1] = test system: Gardner lymphosarcoma (GLS); test: Gardner lymphosarcoma (GLS) transplanted in mice, tumor inhibition or prolongation of survival; format: in vivo
Description: (§1) The compounds of this invention and those preparable by the process disclosed herein are active against transplanted tumors in mice in vivo.
(§2) The following table--Table 1--gives the results of experiments in which mice bearing transplanted Gardner lymphosarcoma (GLS), C3 H mammary tumor, B16 melanoma, P 1534(J) leukemia, P388 leukemia or 755 adenocarcinoma were treated with a compound of this invention. In the table, column 1 gives the name of the compound; column 2, the tumor system employed; column 3, the dosage schedule and column 4, the percent inhibition of tumor growth or increased life span.

P388 leukemia = P388 leukemia transplanted in mice, tumor inhibition or prolongation of survival; format: in vivo
Description: as §1, §2

755 adenocarcinoma = 755 adenocarcinoma transplanted in mice, tumor inhibition or prolongation of survival; format: in vivo
Description: as §1, §2

C3 H mammary tumor = test: C3H mammary tumor transplanted in mice, tumor inhibition or prolongation of survival; format: in vivo
Description: as §1, §2

P 1534(J) leukemia = P 1534(J) leukemia transplanted in mice, tumor inhibition or prolongation of survival; format: in vivo; conditions: P1534(J)
Description: as §1, §2

B16 melanoma = B16 melanoma transplanted in mice, tumor inhibition or prolongation of survival; format: in vivo
Description: as §1, §2

[2] = test system: experimental malignancies; conditions: naturally-occurring Vinca alkaloids; prior patents; cited from earlier work
leukemias = conditions: clinical trial in humans; cited from earlier work

## CCC1(O)CC2CN(CCc3c([nH]c4ccccc34)C(C(=O)OC)(c3cc4c(cc3OC)N(C)C3C(O)(C(=O)NCCCCNC(=O)C5(O)C(O)C6(CC)C=CCN7CCC8(c9cc(C%10(C(=O)OC)CC%11CN(CCc%12c%10[nH]c%10ccccc%12%10)CC(O)(CC)C%11)c(OC)cc9N(C)C58)C76)C(O)C5(CC)C=CCN6CCC43C65)C2)C1 (stereo not shown) [1,4-bis(4-Desacetyl VLB C-3 carboxamido)butane disulfate]
[1]; 0.4 mg./kg. × 9
  Percent Inhibition or Prolongation of Survival Time: 40%

## CCC1(O)CC2CN(CCc3c([nH]c4ccccc34)C(C(=O)OC)(c3cc4c(cc3OC)N(C)C3C(O)(C(=O)NCCOCCNC(=O)C5(O)C(O)C6(CC)C=CCN7CCC8(c9cc(C%10(C(=O)OC)CC%11CN(CCc%12c%10[nH]c%10ccccc%12%10)CC(O)(CC)C%11)c(OC)cc9N(C)C58)C76)C(O)C5(CC)C=CCN6CCC43C65)C2)C1 (stereo not drawn) [bis[β -(4-Desacetyl VLB C-3 carboxamido)ethyl]ether disulfate]
P388 leukemia; P388, 0.6 mg./kg. × 3
  Percent Inhibition or Prolongation of Survival Time: 53%
P388 leukemia; P388, 0.9 mg./kg. × 3
  Percent Inhibition or Prolongation of Survival Time: 77%
P388 leukemia; P388, 1.2 mg./kg. × 3
  Percent Inhibition or Prolongation of Survival Time: 85%
P388 leukemia; P388, 1.8 mg./kg. × 3
  Toxic (Percent Inhibition or Prolongation of Survival Time): Toxic
[1]; 0.4 mg./kg. × 9
  Percent Inhibition or Prolongation of Survival Time: 62%

## CCC1(O)CC2CN(CCc3c([nH]c4ccccc34)C(C(=O)OC)(c3cc4c(cc3OC)N(C)C3C(O)(C(=O)NCC[Se][Se]CCNC(=O)C5(O)C(O)C6(CC)C=CCN7CCC8(c9cc(C%10(C(=O)OC)CC%11CN(CCc%12c%10[nH]c%10ccccc%12%10)CC(O)(CC)C%11)c(OC)cc9N(C)C58)C76)C(O)C5(CC)C=CCN6CCC43C65)C2)C1 (stereo not drawn) [bis[β-(4-Desacetyl VLB C-3 carboxamido)ethyl]diselenide disulfate]
755 adenocarcinoma; 755, 0.6 mg./kg. × 3
  Percent Inhibition or Prolongation of Survival Time: 26-32%
755 adenocarcinoma; 755, 0.9 mg./kg. × 3
  Percent Inhibition or Prolongation of Survival Time: 21-62%
755 adenocarcinoma; 755, 1.2 mg./kg. × 3
  Percent Inhibition or Prolongation of Survival Time: 31-42%
755 adenocarcinoma; 755, 1.8 mg./kg. × 3
  Percent Inhibition or Prolongation of Survival Time: 89%
C3 H mammary tumor; 1.5 mg./kg. × 3
  Percent Inhibition or Prolongation of Survival Time: 56%
C3 H mammary tumor; 2.0 mg./kg. × 3
  Percent Inhibition or Prolongation of Survival Time: 72%
C3 H mammary tumor; 2.5 mg./kg. × 3
  Toxic (Percent Inhibition or Prolongation of Survival Time): Toxic
P 1534(J) leukemia; 1.2 mg./kg. × 3
  Percent Inhibition or Prolongation of Survival Time: 21%
P 1534(J) leukemia; 1.8 mg./kg. × 3
  Percent Inhibition or Prolongation of Survival Time: 66%
[1]; 1.5 mg./kg. × 3
  Percent Inhibition or Prolongation of Survival Time: 29%
[1]; 2.0 mg./kg. × 3
  Percent Inhibition or Prolongation of Survival Time: 57%
[1]; 2.5 mg./kg. × 3
  Percent Inhibition or Prolongation of Survival Time: 72%

## CCC1(O)CC2CN(CCc3c([nH]c4ccccc34)C(C(=O)OC)(c3cc4c(cc3OC)N(C)C3C(O)(C(=O)NCCSSCCNC(=O)C5(O)C(O)C6(CC)C=CCN7CCC8(c9cc(C%10(C(=O)OC)CC%11CN(CCc%12c%10[nH]c%10ccccc%12%10)CC(O)(CC)C%11)c(OC)cc9N(C)C58)C76)C(O)C5(CC)C=CCN6CCC43C65)C2)C1 (stereo not drawn) [bis[β-(4-Desacetyl VLB C-3 carboxamido)ethyl]disulfide disulfate]
755 adenocarcinoma; 755, 0.6 mg./kg. × 3
  Percent Inhibition or Prolongation of Survival Time: 29-34%
755 adenocarcinoma; 755, 0.9 mg./kg. × 3
  Percent Inhibition or Prolongation of Survival Time: 34-54%
755 adenocarcinoma; 755, 1.6 mg./kg. × 3
  Percent Inhibition or Prolongation of Survival Time: 60%
C3 H mammary tumor; 0.9 mg./kg. × 3
  Percent Inhibition or Prolongation of Survival Time: 31-36%
C3 H mammary tumor; 1.2 mg./kg. × 3
  Toxic (Percent Inhibition or Prolongation of Survival Time): Toxic
P 1534(J) leukemia; 0.6 mg./kg. × 3
  Percent Inhibition or Prolongation of Survival Time: 20-39%
P 1534(J) leukemia; 0.9 mg./kg. × 3
  Percent Inhibition or Prolongation of Survival Time: 50-53%
P 1534(J) leukemia; 1.2 mg./kg. × 3
  Percent Inhibition or Prolongation of Survival Time: 62%
  Toxic (Percent Inhibition or Prolongation of Survival Time): Toxic
P 1534(J) leukemia; 1.6 mg./kg. × 3
  Percent Inhibition or Prolongation of Survival Time: 90-99%
P388 leukemia; P388, 0.6 mg./kg. × 3
  Percent Inhibition or Prolongation of Survival Time: 33-44%
P388 leukemia; P388, 0.9 mg./kg. × 3
  Percent Inhibition or Prolongation of Survival Time: 39-47%
P388 leukemia; P388, 1.2 mg./kg. × 3
  Percent Inhibition or Prolongation of Survival Time: 53-61%
B16 melanoma; B16, 0.6 mg./kg. × 3
  Percent Inhibition or Prolongation of Survival Time: 118%
  number of indefinite survivors: 7
B16 melanoma; B16, 0.9 mg./kg. × 3
  Percent Inhibition or Prolongation of Survival Time: 86%
  number of indefinite survivors: 7
B16 melanoma; B16, 1.2 mg./kg. × 3
  Percent Inhibition or Prolongation of Survival Time: 24%
  number of indefinite survivors: 3
[1]; 0.4 mg./kg. × 9
  Percent Inhibition or Prolongation of Survival Time: 43-100%
[1]; 0.9 mg./kg. × 3
  Percent Inhibition or Prolongation of Survival Time: 34-46%
[1]; 1.2 mg./kg. × 3
  Percent Inhibition or Prolongation of Survival Time: 62-93%

## CCC1(O)CN2CCc3c([nH]c4ccccc34)C(C(=O)OC)(c3cc4c(cc3OC)N(C)C3C(O)(C(=O)OC)C(OC(C)=O)C5(CC)C=CCN6CCC43C65)CC(O)(C2)C1 (stereo not shown) [leurocolombine]
[2]
  active in the treatment of experimental malignancies in animals: active

## CC[C@]1(O)C[C@H]2CN(CCc3c([nH]c4ccccc34)[C@@](C(=O)OC)(c3cc4c(cc3OC)N(C=O)[C@H]3[C@@](O)(C(=O)OC)[C@H](OC(C)=O)[C@]5(CC)C=CCN6CC[C@]43[C@@H]65)C2)C1 [leurocristine]
[2]
  active in the treatment of experimental malignancies in animals: active

## CC[C@]12CN3CCc4c([nH]c5ccccc45)[C@@](C(=O)OC)(c4cc5c(cc4OC)N(C=O)[C@H]4[C@@](O)(C(=O)OC)[C@H](OC(C)=O)[C@]6(CC)C=CCN7CC[C@]54[C@@H]76)C[C@@H](C3)[C@H]1O2 [leuroformine]
[2]
  active in the treatment of experimental malignancies in animals: active

## CCC1(O)CC2CN(CCc3c([nH]c4ccccc34)C(C(=O)OC)(c3cc4c(cc3OC)N(C)C3C(O)(C(=O)OC)C(OC(C)=O)C5(CC)C=CCN6CCC43C65)C2)C1 (stereo not shown) [leurosidine]
[2]
  active in the treatment of experimental malignancies in animals: active

## CC[C@]12CN3CCc4c([nH]c5ccccc45)[C@@](C(=O)OC)(c4cc5c(cc4OC)N(C)[C@H]4[C@@](O)(C(=O)OC)[C@H](OC(C)=O)[C@]6(CC)C=CCN7CC[C@]54[C@@H]76)C[C@H](C3)[C@H]1O2 [leurosine]
[2]
  active in the treatment of experimental malignancies in animals: active

## CCC1(O)CN2CCc3c([nH]c4ccccc34)C(C(=O)OC)(c3cc4c(cc3OC)N(C)C3C(O)(C(=O)OC)C(OC(C)=O)C5(CC)C=CCN6CCC43C65)CC(C2)C1O (stereo not shown) [vincadioline]
[2]
  active in the treatment of experimental malignancies in animals: active

## CC[C@]1(O)C[C@@H]2CN(CCc3c([nH]c4ccccc34)[C@@](C(=O)OC)(c3cc4c(cc3OC)N(C)[C@H]3[C@@](O)(C(=O)OC)[C@H](OC(C)=O)[C@]5(CC)C=CCN6CC[C@]43[C@@H]65)C2)C1 [vincaleukoblastine]
[2]
  active in the treatment of experimental malignancies in animals: active

## CC[C@]1(O)C[C@@H]2CN(CCc3c([nH]c4ccccc34)[C@@](C(=O)OC)(c3cc4c(cc3OC)N(C)[C@H]3[C@@](O)(C(N)=O)[C@H](O)[C@]5(CC)C=CCN6CC[C@]43[C@@H]65)C2)C1 [vindesine, 4-desacetyl VLB C-3 carboxamide]
leukemias
  effectiveness against leukemias: effective against leukemias including vincristine-resistant leukemias
  neurotoxicity compared with vincristine: less neurotoxicity than does vincristine
